What was measured:
Type in all cases: functional
Jurkat = assay: Growth inhibition of human Jurkat cells after 72 hrs by MTT assay
[1] = Growth inhibition of human NPC-TW01 cells after 72 hrs by MTT assay; conditions: NPC-TW01, 72 h
NCI-H661 = assay: Growth inhibition of human NCI-H661 cells after 72 hrs by MTT assay; conditions: NCI-H661, 72 h

CN(C)/C(=N/c1cc(-c2ccccc2)nn1-c1ccccc1)c1ccccc1
GI50 (Jurkat): 36.1 µM | GI50 [1]: 20.8 µM | GI50 (NCI-H661): 46.7 µM

CN/C=N/c1cc(-c2ccccc2)nn1-c1ccccc1
GI50 (Jurkat): > 50 µM | GI50 [1]: > 50 µM | GI50 (NCI-H661): > 50 µM

O=Cc1c(-c2ccccc2)nn(-c2ccccc2)c1/N=C/N1CCCC1
GI50 (Jurkat): 31.3 µM | GI50 [1]: > 50 µM | GI50 (NCI-H661): 17.6 µM

Cc1cccc(-n2nc(-c3ccccc3)c(C=O)c2/N=C/N(C)C)c1
GI50 (Jurkat): 9.7 µM | GI50 [1]: 8.9 µM | GI50 (NCI-H661): 31 µM

CN(C)/C=N/c1c(C=O)c(-c2ccc(Cl)cc2)nn1-c1ccccc1
GI50 (Jurkat): 7.9 µM | GI50 [1]: 8.1 µM | GI50 (NCI-H661): 8.6 µM

CN(C)/C=N/c1c(C=O)c(-c2ccccc2)nn1-c1cccc([N+](=O)[O-])c1
GI50 (Jurkat): > 50 µM | GI50 [1]: 36.7 µM | GI50 (NCI-H661): 50 µM

C/C(=N\c1cc(-c2ccccc2)nn1-c1ccccc1)N(C)C
GI50 (Jurkat): > 50 µM | GI50 [1]: > 50 µM | GI50 (NCI-H661): 35.1 µM

COc1ccc(-c2nn(-c3ccccc3)c(/N=C/N(C)C)c2C=O)cc1
GI50 (Jurkat): 12.5 µM | GI50 [1]: 27.2 µM | GI50 (NCI-H661): 9.9 µM

CN(C)/C=N/c1c(C=O)c(-c2ccccc2)nn1-c1ccc(Br)cc1
GI50 (Jurkat): 7.3 µM | GI50 [1]: 7.4 µM | GI50 (NCI-H661): 6.7 µM

CN(C)/C=N/c1c(C=O)c(-c2ccccc2)nn1-c1cccc(Cl)c1
GI50 (Jurkat): 8.3 µM | GI50 [1]: 6.4 µM | GI50 (NCI-H661): 6.9 µM

CCN(/C=N/c1c(C=O)c(-c2ccccc2)nn1-c1ccccc1)CC
GI50 (Jurkat): 30 µM | GI50 [1]: 30.5 µM | GI50 (NCI-H661): 28.8 µM

CN(C)/C=N/c1c(C=O)c(-c2ccccc2)nn1-c1ccccc1
GI50 (Jurkat): 23.5 µM | GI50 [1]: 9.3 µM | GI50 (NCI-H661): 31.4 µM

CN(C)/C=N/c1c(C=O)c(-c2ccccc2)nn1-c1ccccc1Cl
GI50 (Jurkat): 26.3 µM | GI50 [1]: 23.3 µM | GI50 (NCI-H661): 31.4 µM

Cc1ccc(-c2nn(-c3ccccc3)c(/N=C/N(C)C)c2C=O)cc1
GI50 (Jurkat): 9.5 µM | GI50 [1]: 9.7 µM | GI50 (NCI-H661): 11.9 µM

CC/C(=N\c1cc(-c2ccccc2)nn1-c1ccccc1)NC
GI50 (Jurkat): > 50 µM | GI50 [1]: > 50 µM | GI50 (NCI-H661): > 50 µM

O=Cc1c(-c2ccccc2)nn(-c2ccccc2)c1/N=C/N1CCCCC1
GI50 (Jurkat): 29 µM | GI50 [1]: 24.4 µM | GI50 (NCI-H661): 17.7 µM

COc1ccc(-n2nc(-c3ccccc3)c(C=O)c2/N=C/N(C)C)cc1
GI50 (Jurkat): 19.7 µM | GI50 [1]: 20.2 µM | GI50 (NCI-H661): 33.4 µM

CN(C)/C=N/c1c(C=O)c(C(C)(C)C)nn1-c1ccccc1
GI50 (Jurkat): 43.5 µM | GI50 [1]: > 50 µM | GI50 (NCI-H661): 42.8 µM

CN/C(C)=N/c1cc(-c2ccccc2)nn1-c1ccccc1
GI50 (Jurkat): > 50 µM | GI50 [1]: > 50 µM | GI50 (NCI-H661): > 50 µM
